Publication PMC8537501 (2021)

What was measured:
[1] = system: CPG-tel26 (DNA, G4) TTAGGGTTAGGGTTAGGGTTAGGGTT; test: G4-CPG affinity chromatography; details: 50 mM KCl; 10% DMSO, 10% ethanol; 600 μM ligand
[2] = system: CPG-c-myc (DNA, G4) TGGGGAGGGTGGGGAGGGTGGGGAAGGTGGGGA; test: G4-CPG affinity chromatography; details: 50 mM KCl; 10% DMSO, 10% ethanol; 600 μM ligand
[3] = system: CPG-ds27 (DNA, hairpin) CGCGAATTCGCGTTTCGCGAATTCGCG; test: G4-CPG affinity chromatography; details: 50 mM KCl; 10% DMSO, 10% ethanol; 600 μM ligand
[4] = system: tel26 (DNA, G4) TTAGGGTTAGGGTTAGGGTTAGGGTT; test: CD melting, 290 nm; details: 5 mM KCl; 5 mM phosphate, 5% DMSO, pH 7; 2 μM DNA, 20 μM ligand
[5] = system: ds27 (DNA, hairpin) CGCGAATTCGCGTTTCGCGAATTCGCG; test: CD melting, 251 nm; details: 5 mM KCl; 5 mM phosphate, 5% DMSO, pH 7; 2 μM DNA, 20 μM ligand
[6] = system: tel26 (DNA, G4) TTAGGGTTAGGGTTAGGGTTAGGGTT; test: fluorescence titration; details: 5 mM KCl
[7] = system: c-myc (DNA, G4) TGGGGAGGGTGGGGAGGGTGGGGAAGGTGGGGA; test: fluorescence titration; details: 5 mM KCl
[8] = system: ds27 (DNA, hairpin) CGCGAATTCGCGTTTCGCGAATTCGCG; test: fluorescence titration; details: 5 mM KCl
[9] = system: c-myc (DNA, G4) TGGGGAGGGTGGGGAGGGTGGGGAAGGTGGGGA; test: CD melting, 262 nm; details: 0.5 mM KCl; 0.5 mM phosphate, 5% DMSO, pH 7; 2 μM DNA, 20 μM ligand
[10] = 5 mM phosphate, 5% DMSO, pH 7, 20 °C, 2 μM ligand, independent equivalent-sites model

SMILES: CC(C)(O)CC[C@@H](O)[C@](C)(O)[C@H]1CC[C@@]2(O)C3=CC(=O)[C@@H]4C[C@@H](O)[C@@H](O)C[C@]4(C)[C@H]3CC[C@]12C
- binding [1]: weak

SMILES: CC(C)=CCC1=C(O)c2c(cc3cc(C)cc(O)c3c2O)C(CC=C(C)C)(CC=C(C)C)C1=O
- binding [1]: weak
- binding [2]: weak

SMILES: CC(C)=CCc1c(C)cc2cc3c(c(O)c2c1O)C(=O)C=C(O)C3(CC=C(C)C)CC=C(CO)CO (stereo not shown)
- binding [1]: weak
- binding [2]: weak

SMILES: CC1=C2C(=O)[C@H]3[C@@H](CC=C4C[C@@H](O)CC[C@@]43C)[C@@H]2CC[C@]12O[C@@H]1C[C@H](C)CN[C@H]1[C@H]2C
- binding [1]: yes
- binding [2]: yes
- binding [3]: yes

SMILES: CC[C@H]1CN2CCc3cc(OC)c(OC)cc3[C@@H]2C[C@@H]1C[C@H]1NCCc2cc(OC)c(OC)cc21
- binding [1]: yes
- binding [2]: yes
- binding [3]: yes

SMILES: CC[C@H]1C[C@@H]2C[C@H]3c4[nH]c5ccc(OC)cc5c4CCN(C2)[C@@H]13
- ΔTm [4]: +2 °C
- ΔTm [5]: 0 °C
- Kb [6]: 4.1 (±0.8) × 10^5 M^-1
- Kb [7]: 3.9 (±0.7) × 10^5 M^-1
- Kb [8]: 3.7 (±0.7) × 10^5 M^-1

SMILES: CN1CC[C@]23C(=O)C[C@H]4C(=CCO[C@H]5CC(=O)N(c6c(O)cccc62)[C@H]3[C@H]54)C1
- ΔTm [4]: 0 °C
- ΔTm [9]: +5 °C
- ΔTm [5]: −3 °C
- binding [1]: yes
- binding [2]: yes

SMILES: CN1Cc2c(ccc3c2OCO3)[C@@H]2[C@H]1c1cc3c(cc1C[C@@H]2O)OCO3
- ΔTm [4]: +4 °C
- ΔTm [9]: +13 °C
- ΔTm [5]: −1 °C
- binding ([6]; 5 mM phosphate, 5% DMSO, pH 7, 20 °C, 2 μM ligand, quenching, not fitted): yes
- binding ([7]; 5 mM phosphate, 5% DMSO, pH 7, 20 °C, 2 μM ligand, enhancement then quenching, not fitted): yes
- binding ([8]; 5 mM phosphate, 5% DMSO, pH 7, 20 °C, 2 μM ligand, DNA up to 10 μM): no

SMILES: COC(=O)[C@@H]1[C@H]2C[C@H]3c4[nH]c5ccccc5c4CCN3C[C@@H]2CC[C@@H]1O
- binding [2]: weak

SMILES: COc1cc2cc3c(c(O)c2c2c1C=CC(C)(C)O2)C(=O)CC(C)(O)C3 (stereo not shown)
- binding [1]: weak
- binding [2]: weak

SMILES: COc1ccc2c(c1O)-c1c3c(cc4c1[C@H](C2)N(C)CC4)OCO3
- ΔTm [9]: +9 °C
- Kb [6, 10]: 1.0 (±0.4) × 10^6 M^-1
- Kb [7, 10]: 1.1 (±0.4) × 10^6 M^-1
- Kb [8, 10]: 1.2 (±0.6) × 10^6 M^-1
